Laboratory results from ChEMBL document CHEMBL1124120, “Mapping of the beta 2-adrenoceptor on Chang liver cells. Differences between high- and low-affinity receptor states” (J Med Chem, 1988).

What was measured:
[1] = target: Beta-2 adrenergic receptor (Bos taurus) (UniProt Q28044); conditions: Muscle tissue
Description: Change in Gibb's free energy at Low affinity beta-2-adrenoceptor in the membranes of bovine skeletal muscle preparation

[2] = target: Beta-2 adrenergic receptor (Homo sapiens) (UniProt P07550)
Description: Change in Gibb's free energy at Low affinity beta-2-adrenoceptor in the Chang living cells

[3] = target: Beta-2 adrenergic receptor (Homo sapiens) (UniProt P07550); remark: listed apart in the source
Description: Change in Gibb's free energy at High affinity beta2- adrenoceptor in Chang living cells.

Chain of Beta-2 adrenergic receptor (Bos taurus) (Q28044 whole entry, looked up): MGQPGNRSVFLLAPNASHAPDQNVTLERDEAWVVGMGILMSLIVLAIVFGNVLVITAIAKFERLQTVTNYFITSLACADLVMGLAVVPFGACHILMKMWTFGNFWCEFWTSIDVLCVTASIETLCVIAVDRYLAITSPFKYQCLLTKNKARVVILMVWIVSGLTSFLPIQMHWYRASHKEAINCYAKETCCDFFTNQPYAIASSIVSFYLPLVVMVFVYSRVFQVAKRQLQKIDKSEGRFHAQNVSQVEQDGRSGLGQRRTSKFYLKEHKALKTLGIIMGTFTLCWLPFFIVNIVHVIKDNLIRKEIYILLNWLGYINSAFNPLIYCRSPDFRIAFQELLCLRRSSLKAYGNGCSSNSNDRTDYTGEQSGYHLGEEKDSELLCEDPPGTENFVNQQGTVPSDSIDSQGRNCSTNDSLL
Chain of Beta-2 adrenergic receptor (Homo sapiens) (P07550 whole entry, looked up): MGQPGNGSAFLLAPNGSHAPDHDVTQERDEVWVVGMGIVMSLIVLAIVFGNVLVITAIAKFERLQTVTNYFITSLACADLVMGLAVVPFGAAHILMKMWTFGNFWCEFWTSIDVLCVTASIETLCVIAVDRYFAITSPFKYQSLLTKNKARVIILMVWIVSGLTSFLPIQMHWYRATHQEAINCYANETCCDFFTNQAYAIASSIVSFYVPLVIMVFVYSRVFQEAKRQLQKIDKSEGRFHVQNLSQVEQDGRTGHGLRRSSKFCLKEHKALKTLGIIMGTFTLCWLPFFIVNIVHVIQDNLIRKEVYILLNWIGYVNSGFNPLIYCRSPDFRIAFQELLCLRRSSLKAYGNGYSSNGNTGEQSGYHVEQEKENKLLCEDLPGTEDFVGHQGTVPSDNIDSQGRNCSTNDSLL

Row | SMILES | -Delta G [1] | -Delta G [2] | -Delta G [3]
1 | C=CCc1ccccc1OCC(O)CNC(C)C (stereo not given) | 13.3 | – | –
2 | C=CCc1ccccc1OCC(O)CNCC(C)(C)N (stereo not given) | – | 9.54 | –
3 | CC(C)(C)NCC(O)c1ccccc1Cl (stereo not given) | – | 9.17 | –
4 | CC(C)NCC(O)COc1cccc2[nH]ccc12 (stereo not given) | – | 12.8 | –
5 | CCCc1ccccc1OCC(O)CNC(C)C (stereo not given) | 13.1 | 12.9 | –
6 | CNC[C@H](O)c1ccc(O)c(O)c1 | – | 6.92 | 10.1
7 | NC[C@H](O)c1ccc(O)c(O)c1 | – | 6 | 8.64
8 | CC(C)(C)NCC(O)COc1cccc2[nH]c(C#N)c(I)c12 (racemic) | – | 15.2 | –
9 | CC(C)(C)NCC(O)c1cc(Cl)c(N)c(Cl)c1 (racemic) | 11 | – | –
10 | CC(C)(C)NCC(O)c1cc(Cl)c(O)c(Cl)c1 (racemic) | 10.5 | 11.1 | –
11 | CC(C)(C)NCC(O)c1cc(O)cc(O)c1 (racemic) | 8.13 | – | –
12 | CC(C)(C)NCC(O)c1ccc(O)c(C(N)=O)c1 (racemic) | – | 9.54 | 11.2
13 | CC(C)(C)NCC(O)c1ccc(O)c(CO)c1 (racemic) | 9.34 | – | –
14 | CC(C)(C)NCC(O)c1ccc(O)c(N)c1 (racemic) | 8.5 | 7.73 | 9.69
15 | CC(C)(C)NCC(O)c1ccc(O)c(O)c1 (racemic) | 9.29 | 8.5 | 11.7
16 | CC(C)(N)CNCC(O)COc1cccc2[nH]ccc12 (racemic) | – | 10.1 | –
17 | CC(C)NCC(O)c1cc(Cl)c(N)c(Cl)c1 (racemic) | 10.7 | 9.08 | 11.1
18 | CC(C)NCC(O)c1cc(O)cc(O)c1 (racemic) | – | 7.19 | 10.7
19 | CC(C)NCC(O)c1ccc(NS(C)(=O)=O)cc1 (racemic) | 9.32 | – | –
20 | CC(C)NCC(O)c1ccc(O)c(CO)c1 (racemic) | – | 7.41 | 9.6
21 | CC(C)NCC(O)c1ccc(O)c(N)c1 (racemic) | 7.93 | 7.17 | 9.13
22 | CC(C)NCC(O)c1ccc(O)cc1 (racemic) | – | – | 9.76
23 | CC(C)NCC(O)c1ccc([N+](=O)[O-])cc1 (racemic) | – | 8.23 | –
24 | CC(C)NCC(O)c1ccc2ccccc2c1 (racemic) | 10.1 | – | –
25 | CC(C)NCC(O)c1cccc(O)c1 (racemic) | 9 | 7.05 | –
26 | CC(C)NC[C@H](O)COc1ccc(O)cc1 (racemic) | 8.9 | 9.76 | –
27 | CC(Cc1ccc(O)cc1)NCC(O)c1cc(O)cc(O)c1 (racemic) | – | 8.28 | –
28 | CNc1cc(C(O)CNC(C)(C)C)ccc1O (racemic) | – | 9.39 | 10.5
29 | Cc1cc(C)cc(OCC(O)CNC(C)C)c1 (racemic) | 11.8 | 10.4 | –
30 | Cc1cccc(OCC(O)CNC(C)C)c1 (racemic) | 10.9 | 11.4 | –
